Source: patent US20250152605A1, “METHOD AND DRUG FOR TREATING NEURONAL CEROID LIPOFUSCINOSIS” (priority 2021, published 2025)

Key:
CLN3^Δex7/8 neurons [1] = experiment: Mitochondrial autophagy level (mtDNA/nDNA after CCCP and Baf-A1); type: cell-based, human; details: CCCP-induced mitochondrial damage
Procedure: The medium in the cell culture plate was aspirated and the cells were digested after washing once with dPBS. After stopping the digestion with cell medium, the supernatant was removed by centrifugation and the cells were resuspended with 200 μL dPBS. DNeasy®) Blood & Tissue Kit was used to extract DNA from cells. Then, referring to the qRT-PCR system and reaction procedure in Tables 2 and 3, the qRT-PCR reaction was performed using the extracted DNA instead of the cDNA. Data analysis was performed in Prism 7 software using the 2^ΔΔCt process with genomic gene b2M as internal reference for relative quantification of the number of mitochondrial sequences MinArc. Primers for determining intracellular mitochondria number were as follows:
Damaged mitochondria within a cell can be eliminated through an autophagic process named mitochondrial autophagy. Functional defects in autophagy affect the elimination of damaged mitochondria, which in turn disrupts mitochondrial homeostasis in neurons. After inducing mitochondrial damage in wild-type and CLN3^Δex7/8 neurons using the mitochondrial uncoupler CCCP, and then inhibiting the elimination of damaged mitochondria by Baf-A1, the increases of intracellular mitochondrial number (mtDNA/nDNA) after Baf-A1 treatment can represent the intracellular mitochondrial autophagy level.

[2] = tested on: KEAP1-knockdown CLN3^Δex7/8 human neurons; experiment: Lysotracker staining of KEAP1-knockdown CLN3^Δex7/8 human neurons; type: cell-based; details: added to KEAP1-knockdown CLN3^Δex7/8 human neurons
Procedure: shRNA knockdown experiments of genes such as CLN3 and KEAP1 were conducted in induced neural stem cells and neurons, with specific steps as follows: the neural stem cells were planted into a desired cell culture plate to a cell density of about 50% or the neural stem cells were differentiated into human neurons in the cell culture plate according to experimental requirements; the shRNA lentiviral plasmids of CLN3 and KEAP1 genes and the control lentiviral plasmid expressing non-target sequences were selected from the MISSIOH human shRNA library of Sigma Aldrich, and the sequences were shown in Table 6; Lentiviruses was packaged in 10 cm cell culture plates and virus-containing supernatant was collected by filtration according to the method described above; the supernatant and lentivirus concentrate (40% PEG-8000 and 1.2M sodium chloride dissolved in dPBS solution, pH˜ 7.0) were mixed in a volume ratio of 1:3, and incubated overnight at 4° C. with slow rotation; centrifugation at 13000 g for 30 minutes at 4° C., and the supernatant was discarded, and the pellet was resuspended in 1 mL of fresh cell culture medium and added to the target cells; after 8 hours of infection, the virus was aspirated and fresh cell culture medium was added; 48 hours after infection, 1.5 μg/mL puromycin was added for selection for 72 hours, and the surviving cells were used for subsequent experiments. […]

CLN3^Δex7/8 neurons [3] = experiment: Intracellular relative ATP content (Cell Titer Glo); type: cell-based, human; details: same number of CLN3^Δex7/8 neurons
Procedure: Neural stem cells or neurons were digested into single cells and were counted using a hemocytometer. The cell suspension was then diluted to the same cell concentration (10^5˜10^6/mL). 100 μL of cell suspension was taken out into a white 96-well analysis plate, and 100 μL of CellTiter-Lumi™ Steady Plus reagent that had been equilibrated to room temperature was added, shaken to mix, and incubated at room temperature for 15 minutes. The chemiluminescence intensity of the sample was then read using a multifunctional microplate reader to indicate the intracellular relative ATP content.
To test the effect of compound G on mitochondrial homeostasis in CLN3^Δex7/8 neurons, fluorescently labeled mitochondrial outer membrane protein OMP25-GFP was overexpressed in neurons, and the morphological changes of mitochondria were observed by laser confocal microscope. […] The amount of ATP generation in the same number of neurons was tested using Cell Titer Glo reagent.

[4] = tested on: CLN3^Δex7/8 human neural stem cells; experiment: Tandem LC3 autophagic flux in human neural stem cells; type: cell-based
Source text: After lysosomal function defects were detected in CLN3^Δex7/8 neural stem cells and neurons, autophagic flux in the cells was further examined. Equal amounts of lentivirus packaged with tandem LC3 plasmid were used to infect wild-type and CLN3^Δex7/8 cells to label intracellular autophagosomes.
Autophagosomes in neural stem cells were labeled using tandem LC3, and the number of autophagosomes with green fluorescence and those with red fluorescence only were observed by high-intensity laser confocal microscope.

mice's neurons = experiment: qRT-PCR of autophagy-related and lysosomal genes in mouse neurons; type: cell-based; details: 6 hours
Procedure: The cells in the cell-culture dish were collected, extracted using AxyPrep Total RNA Mini Prep Kit or Qiagen AxyPrep Total RNA Mini Prep Kit, and the extracted RNA concentration is measured using Nanodrop; the extracted mRNA was reverse transcribed into cDNA by Transgen's EasyScript® One-Step gDNA Removal and cDNA Synthesis SuperMix and the primers used for reverse transcription were Oligo dT primers; the completion of reverse transcription followed by qRT-PCR reaction through PerfectStart™ Green qPCR SuperMix to detect the expression of the target gene; the qRT-PCR reaction was performed on the Bio-Rad CFX96 Real-Time PCR system; see Table 2 and Table 3 for the 20 μL qRT-PCR reaction system and reaction procedures; data analysis was performed in Prism 7 software using the 2^−ΔΔCt process with GAPDH as internal reference for relative quantification of the expression of the target gene.
After treating primary (a) neural stem cells and (b) neurons of Cln3 KO) mice for 6 hours, the mRNA was extracted from the cells, reverse-transcribed into cDNA, and transcription levels of autophagy- and lysosome-related genes were detected using qRT-PCR (n=3).
It was speculated from this that the known target FXR of Compound G was expressed at low or no levels in neural lineage cells. […]

[5] = tested on: CLN3^Δex7/8 neural stem cells; experiment: Differentiation of CLN3^Δex7/8 neural stem cells into neurons; type: cell-based, human; details: after 17 days of differentiation
Procedure: When the density of human induced neural stem cells reached 85-95%, passage was performed at 1:20-1:50 according to the above method. The medium on the day of passage (recorded as Day 1 of differentiation) was human neural stem cell maintenance medium with 10 μM Y27632, which was removed after 24 h, and culture continued in human neural stem cell maintenance medium for 48 hours. On Day 4 of differentiation, the medium was changed to human neuronal differentiation medium (human neuronal medium: DMEM/F12 medium+10 ng/ml hBDNF+10 ng/ml hGDNF+300 ng/mL cAMP+0.2 mM vitamin C+1×N2+1×B27+1% Penicillin/Streptomycin), with medium change halfly every other day. Human neurons highly expressing MAP2 and TUJ1 proteins were obtained on Day 17 of differentiation. Thereafter, the human neurons could be continuously cultured in the human neuron differentiation medium, with medium change halfly every other day.
Starting from the same number of human neural stem cells induced to differentiate into human neurons, CLN3^Δex7/8 neural stem cells eventually generated a lower number of neurons than wild-type cells. During the process of neurons differentiation, the seven small molecule compounds obtained above were each added to the culture medium and observed for their effects on the differentiation process of CLN3^Δex7/8 neural stem cells into neurons.

In the case of `C/C=C1\C(=O)C[C@H]2[C@@H]3CCC4=CC(=O)CC[C@]4(C)[C@H]3CC[C@]12C` [Compound G, (Z)-guggulsterone], the “mitochondrial autophagy (increase of mitochondrial number mtDNA/nDNA after Baf-A1)” value (CLN3^Δex7/8 neurons [1]) is reported as “rescue mitochondrial autophagy”, the “Lysotracker average fluorescence intensity” value [2] is reported as “could not further increase” and the “capacity of ATP generation” value (CLN3^Δex7/8 neurons [3]) is reported as “significantly increased”. For the same compound, the “number of red fluorescence single-positive autophagosomes” value [4] was “increased the number of red fluorescence single-positive autophagosomes”, the “transcription level of the autophagy-related genes or the lysosomal genes” value (mice's neurons) was “did not significantly increase” and the “MAP2 and TUJ1-positive neurons generated from the same number of cells” value [5] was “generate more MAP2 and TUJ1-positive neurons”.
